In patent US8592367B2, “Nodule specific medicago peptides having antimicrobial activity and pharmaceutical compositions containing the same” (priority 2009, dated 2013):

Tests used:
[1] = tested on: Sinorhizobium meliloti AK631; test: CFU determination of Sinorhizobium meliloti; conditions: 50 μg/ml
Clavibacter michigense [2] = test: CFU determination, broad spectrum activity; assay type: cell-based; conditions: 50 μg/ml, untreated 10^9
[3] = tested on: Arabidopsis (ecotype: wassilewskiya); test: Arabidopsis germination and seedling growth; conditions: 50 μg/ml=42 μM
Clavibacter michigense [4] = test: PI staining, broad spectrum activity; assay type: cell-based; conditions: 50 μg/ml
Pseudomonas aeruginosa [5] = test: CFU determination, broad spectrum activity; assay type: cell-based; conditions: 50 μg/ml, Pseudomonas aeruginosa, untreated 10^7
Xanthomonas 2880 [6] = test: CFU determination, broad spectrum activity; assay type: cell-based; conditions: 50 μg/ml, Xanthomonas 2880, untreated 10^7
Bacillus subtilis [7] = test: PI staining, broad spectrum activity; assay type: cell-based; conditions: 50 μg/ml
Xanthomonas 2880 [8] = test: PI staining, broad spectrum activity; assay type: cell-based; conditions: 50 μg/ml
[9] = tested on: Pseudomonas syringae pv tomato DC3000; test: CFU determination, broad spectrum activity; assay type: cell-based; conditions: 50 μg/ml, Pseudomonas syringae pv tomato DC3000, untreated 10^7
[10] = tested on: Curtobacterium, flaccumfaciens; test: CFU determination, broad spectrum activity; assay type: cell-based; conditions: 50 μg/ml, untreated 10^9
Staphylococcus aureus [11] = test: CFU determination, broad spectrum activity; assay type: cell-based; conditions: 50 μg/ml, untreated 10^6
Staphylococcus aureus [12] = test: PI staining, broad spectrum activity; assay type: cell-based; conditions: 50 μg/ml
[13] = tested on: Curtobacterium, flaccumfaciens; test: PI staining, broad spectrum activity; assay type: cell-based; conditions: 50 μg/ml
Bacillus subtilis [14] = test: CFU determination, broad spectrum activity; assay type: cell-based; conditions: 50 μg/ml, untreated 10^6
[15] = tested on: Sinorhizobium meliloti AK631; test: PI staining of Sinorhizobium meliloti; conditions: 50 μg/ml, Sinorhizobium meliloti (AK631)
[16] = tested on: Pseudomonas syringae pv tomato DC3000; test: PI staining, broad spectrum activity; assay type: cell-based; conditions: 50 μg/ml
Pseudomonas aeruginosa [17] = test: PI staining, broad spectrum activity; assay type: cell-based; conditions: 50 μg/ml

Substance: Polymyxin B [reference compound]
- CFU % ([1]; 1 hr): 0%
- CFU (colony/ml) ([1]; 1 hr): 0 colony/ml
- CFU determination (colony formation) ([1]; 3 hours, 2-3×10^6 bacteria, FIG. 2B): none formed colony
- CFU ([1]; Sinorhizobium meliloti (AK631), untreated 10^7): CFU: 10^5
- CFU (Clavibacter michigense [2]): CFU: 0
- effect on plant growth [3]: inhibits growth
- PI (Clavibacter michigense [4]): PI: 60%
- CFU (Pseudomonas aeruginosa [5]): CFU: 0
- CFU (Xanthomonas 2880 [6]): CFU: 0
- PI (Bacillus subtilis [7]): PI: 60%
- PI (Xanthomonas 2880 [8]): PI: 100%
- CFU [9]: CFU:0
- CFU [10]: CFU: 0
- CFU (Staphylococcus aureus [11]): CFU: 10^6
- PI (Staphylococcus aureus [12]): PI: 75%
- PI [13]: PI: 60%
- CFU (Bacillus subtilis [14]): CFU: 10^6
- PI [15]: PI: 70%
- PI [16]: PI: 95%
- PI (Pseudomonas aeruginosa [17]): PI: 50%
